Data on 73 compounds can be found in ChEMBL document CHEMBL3507680, “University of Dundee, Gates Library screen for HepG2 cell viability”.

The structures appear in SMILES notation.

The nature of this data set: Human HepG2 cell viability assay in 384 well format. The class given is toxicity, cell-based. Also noted: dose 125 nL, time 70.5 hour; concentration not given beside the values. Conditions: HepG2 cells, read-out: Inhibition.

With `Cc1ccccc1C(C#N)NC(=O)c1cccc2c1OCCO2` (stereo not drawn), the cytotoxicity at 70.5 h turned out to be 11%.

Turning to `Cc1[nH]nc2ncc(C(=O)N3CCN(CC(O)C(C)(C)C)CC3)cc12` (stereo not drawn), the cytotoxicity at 70.5 h is -1.93%.

On to `COC(C)c1noc(CN(C)c2nccnc2C#N)n1` (stereo not drawn), for which the cytotoxicity at 70.5 h worked out at 1.72%.

On to `CC(CNS(N)(=O)=O)Oc1ccc(Cl)cc1` (stereo not drawn), for which the cytotoxicity at 70.5 h is 1.53%.

For the compound `CN(C)c1nc(CNC(=O)NC2CCc3ccccc32)cs1` (stereo not drawn), the cytotoxicity at 70.5 h was -0.66%.

`c1ccc2oc(N3CCn4c(nnc4C4CC4)C3)nc2c1`: the cytotoxicity at 70.5 h was -2.1%.

Turning to `CC(C)N1CCC(O)(CNC(=O)CC2OCCc3ccccc32)CC1` (stereo not drawn), the cytotoxicity at 70.5 h amounted to 4.01%.

As for `CN(c1nc(Cn2cc(Br)ccc2=O)cs1)C1CC1`, the cytotoxicity at 70.5 h is -4.85%.

`O=C(CN1CCCS1(=O)=O)Nc1ccc(OC2CCCC2)cc1`: the cytotoxicity at 70.5 h is -0.244%.

For the compound `CSc1c[nH]nc1NS(=O)(=O)c1cc(F)ccc1Cl`, the cytotoxicity at 70.5 h was -0.455%.

On to `COC(C)c1noc(CN(C)c2ncccn2)n1` (stereo not drawn), for which the cytotoxicity at 70.5 h is -1.92%.

For the compound `CN(Cc1ccc(C(=O)O)cc1)C(=O)c1sccc1OC(F)F`, the cytotoxicity at 70.5 h was determined as 3.59%.

For the compound `CC(C)c1nnc2n1CCN(c1nc3ccccc3o1)C2`, the cytotoxicity at 70.5 h was -10.1%.

As for `CN(c1nc(Cn2cnccc2=O)cs1)C1CC1`, the cytotoxicity at 70.5 h was -4.18%.

Consider `CS(=O)(=O)C1(CNCc2cccc(-n3cccn3)c2)CCOCC1`, for which the cytotoxicity at 70.5 h is 12.5%.

Turning to `CCn1cnnc1CCNS(=O)(=O)N1CCCC1c1ccco1` (stereo not drawn), the cytotoxicity at 70.5 h is -9.13%.

`CCc1noc(C(C)Sc2nnc(C3CC3)n2CC(N)=O)n1` (stereo not drawn): the cytotoxicity at 70.5 h is -0.541%.

Regarding `O=C(NCC1CCS(=O)(=O)C1)N(Cc1ccccn1)C1CC1` (stereo not drawn), the cytotoxicity at 70.5 h was -6.34%.

Consider `O=C(NCc1cc(-c2ccccc2)no1)NC1CCCCNC1=O` (stereo not drawn), for which the cytotoxicity at 70.5 h worked out at 4.05%.

`O=C(NCC(=O)N1CCCCC1)c1sccc1C1CC1`: the cytotoxicity at 70.5 h stood at 7.84%.

With `COc1ccccc1C(C)(C)NC(=O)c1cc(NC(C)=O)ccc1F`, the cytotoxicity at 70.5 h was -6.53%.

In the case of `CCc1cc(=O)[nH]c(-c2ccc(NCCC(C)O)nc2)n1` (stereo not drawn), the cytotoxicity at 70.5 h is -5.98%.

Consider `Cc1nnc(N2CCc3cnc(C(C)C)nc3C2)c(C#N)c1C`, for which the cytotoxicity at 70.5 h was 1.1%.

On to `CCOC(=O)C1(O)CCN(C(=O)Nc2cccc(F)c2)CC1`, for which the cytotoxicity at 70.5 h turned out to be 4.4%.

For the compound `Cc1occc1CNc1ncccc1S(N)(=O)=O`, the cytotoxicity at 70.5 h was -3.76%.

`CC(C)c1nnc(CN2CC(n3cccn3)Cc3ccccc32)o1` (stereo not drawn): the cytotoxicity at 70.5 h was -4.11%.

`CCn1cnnc1CNS(=O)(=O)N1CCCC1c1ccc(C)o1` (stereo not drawn): the cytotoxicity at 70.5 h is -4.31%.

As for `O=C(NCC(=O)N1CCN(c2ccccc2)CC1)c1sccc1C1CC1`, the cytotoxicity at 70.5 h is -2.46%.

With `Cn1cc(C2CCCN2C(=O)Cc2coc(-c3ccccc3)n2)cn1` (stereo not drawn), the cytotoxicity at 70.5 h was -7.27%.

As for `O=C(c1ccccc1F)N1CCN(CCCn2cncn2)CC1`, the cytotoxicity at 70.5 h is -5.46%.

On to `Cc1cc(NC(=O)N2CCCC(CO)C2)nn1-c1ccccc1Cl` (stereo not drawn), for which the cytotoxicity at 70.5 h is -1.91%.

With `Cc1ccc(-c2cc(CNCCn3cc(C)cn3)on2)cc1`, the cytotoxicity at 70.5 h is -1.34%.

As for `Cc1ccoc1C(=O)NC(CC(C)C)C(=O)N1CCC(CO)CC1` (stereo not drawn), the cytotoxicity at 70.5 h was 27.4%.

Regarding `CNC(=O)CN1CCN(C(=O)Nc2ccc(C)s2)CC1`, the cytotoxicity at 70.5 h is -1.2%.

`Cn1c(NCCC(=O)N2CCCC2)c(C#N)c(=O)n(C)c1=O`: the cytotoxicity at 70.5 h was found to be 3.58%.

With `Cn1c(NCCN2CCCCCC2)c(C#N)c(=O)n(C)c1=O`, the cytotoxicity at 70.5 h is -7.25%.

On to `CCNc1c(C#N)c(=O)n(C)c(=O)n1C`, for which the cytotoxicity at 70.5 h is -8.97%.

For `CC(C)NC(=O)C(C(C)C)n1cnc2cc(F)c(F)cc21` (stereo not drawn), the cytotoxicity at 70.5 h was -7.62%.

Regarding `CC(=O)N1CCN(CCNc2snc(Cl)c2C#N)CC1`, the cytotoxicity at 70.5 h is -5.16%.

As to `CC(=O)NC1(C(=O)N2CCCN(c3cccnn3)CC2)CCCCC1`, the cytotoxicity at 70.5 h was -5.29%.

For the compound `CC(Nc1ccc(CN2CCCC2=O)cc1)c1ccc(C#N)cc1` (stereo not drawn), the cytotoxicity at 70.5 h is -5.25%.

As to `CCC(=O)NCC(=O)Nc1ncc(I)cc1C`, the cytotoxicity at 70.5 h turned out to be 0.64%.

Regarding `Cc1ccc(NC(=O)N2CCN(C(=O)CC3CCCC3)CC2)s1`, the cytotoxicity at 70.5 h is -10.2%.

On to `Cc1noc(C)c1NS(=O)(=O)c1cc(Cl)c(Cl)c(C(=O)O)c1`, for which the cytotoxicity at 70.5 h was -9.2%.

`O=C(N1CCc2ccccc2CC1)C1(O)Cc2ccccc2C1`: the cytotoxicity at 70.5 h is -2.64%.

Regarding `CC(C)C(C(=O)NCC1CC1)n1cnc2cc(F)c(F)cc21` (stereo not drawn), the cytotoxicity at 70.5 h is -1.42%.

Take `CC(C)C(C(=O)NC1CCOCC1)n1cnc2cc(F)c(F)cc21` (stereo not drawn): the cytotoxicity at 70.5 h stood at 1.78%.

For `Clc1cccnc1N1CCC(NCc2cccc3cn[nH]c23)C1` (stereo not drawn), the cytotoxicity at 70.5 h was -4.87%.

For the compound `O=C(CNC(=O)C1CCCC1)NCc1cnn(-c2ccc(F)cc2F)c1`, the cytotoxicity at 70.5 h is -1.74%.

Turning to `CCOC(C)C(=O)Nc1ccc2c(ccn2CC)c1` (stereo not drawn), the cytotoxicity at 70.5 h is 1.36%.

Turning to `O=C(NCc1cnn(-c2ccc(F)cc2F)c1)C1CCCO1` (stereo not drawn), the cytotoxicity at 70.5 h is -1.57%.

As for `Fc1ccc(C2(NCc3noc(C4CC4)n3)CCC2)cc1`, the cytotoxicity at 70.5 h worked out at 8.34%.

Consider `CC(NCc1ccccc1CN1CCCC1=O)c1ccc(C#N)cc1` (stereo not drawn), for which the cytotoxicity at 70.5 h amounted to 4.5%.

In the case of `CN1CCC(N2CCOC3(CCCC3)C2)C1=O` (stereo not drawn), the cytotoxicity at 70.5 h was 5.41%.

As to `O=C(NCCCN1CCC(OC2CCCCC2)CC1)C1CCCC1`, the cytotoxicity at 70.5 h was -0.377%.

Regarding `CNC(=O)CSC(C)c1ccc(Br)cc1` (stereo not drawn), the cytotoxicity at 70.5 h came out at 2.63%.

`CN(C)C(=O)CS(=O)(=O)Cc1ccn(-c2cccc(F)c2)n1`: the cytotoxicity at 70.5 h was -3.31%.

Regarding `CN(C1CCCCC1)S(=O)(=O)NC1CCN(c2ncccn2)CC1`, the cytotoxicity at 70.5 h was -7.52%.

In the case of `CC1CN(c2ncnc3cccc(F)c23)CCO1` (stereo not drawn), the cytotoxicity at 70.5 h is 10.6%.

On to `O=C1CC(N(C(=O)c2ccc(-n3cccc3)cc2)C2CC2)C(=O)N1` (stereo not drawn), for which the cytotoxicity at 70.5 h was -4.68%.

`CC(C)(C(=O)NCCCC(N)=O)c1cccc(Br)c1`: the cytotoxicity at 70.5 h was -8.19%.

Turning to `O=C(Nc1cccc(F)c1)C1CCN(Cc2noc(C3CC3)n2)CC1`, the cytotoxicity at 70.5 h is -13.9%.

`O=C(Nc1cccc(F)c1)N1CCN(Cc2noc(C3CC3)n2)CC1`: the cytotoxicity at 70.5 h was -13.8%.

Consider `Cc1noc(C)c1CC(=O)N1CCCC(c2noc(C(C)C)n2)C1` (stereo not drawn), for which the cytotoxicity at 70.5 h is -9.31%.

Regarding `CCn1nc(C)c(CNC(=O)NCC(C)(O)c2ccc(C)o2)c1C` (stereo not drawn), the cytotoxicity at 70.5 h was -13.6%.

Regarding `CC1COc2ccccc2N1C(=O)c1ccnc(-n2cncn2)c1` (stereo not drawn), the cytotoxicity at 70.5 h was 9.86%.

Turning to `CCn1ccnc1S(=O)(=O)Cc1c(C)cc(C)c(C(C)=O)c1C`, the cytotoxicity at 70.5 h is -6.82%.

Take `CC(CCc1ccccc1F)C(=O)NS(C)(=O)=O` (stereo not drawn): the cytotoxicity at 70.5 h was -8.18%.

In the case of `CCn1nc(C)c(CNC(=O)NCC(C)(O)c2ccco2)c1C` (stereo not drawn), the cytotoxicity at 70.5 h was -1.92%.

On to `O=C(Nc1cnn(Cc2ccc(Cl)cc2)c1)N[C@@H]1C=C[C@H](CO)C1`, for which the cytotoxicity at 70.5 h is -7.72%.

Regarding `Cc1ccn(-c2ccc(N3CCN(Cc4ccccn4)CC3)nn2)n1`, the cytotoxicity at 70.5 h was -7.77%.

`CC1CN(S(=O)(=O)c2cc(S(C)(=O)=O)ccc2Br)c2cccnc2O1` (stereo not drawn): the cytotoxicity at 70.5 h amounted to 1.23%.

As to `CC(C)c1nc(C2CCCN(C(=O)CS(=O)(=O)C(C)C)C2)no1` (stereo not drawn), the cytotoxicity at 70.5 h was -7.77%.
